In publication PMC7804203, “Targeting adaptor protein SLP76 of RAGE as a therapeutic approach for lethal sepsis” (Nature Communications, 2021):

Experiments:
[1] = system: TNF secretion, RAW264.7 cells; assay: ELISA of TNF from RAW264.7 cells pretreated with kinase inhibitors; format: cell-based
Procedure: (§1) Serum was separated from patient samples for measurement of AGEs with an ELISA kit (#MBS267540, MyBioSource, San Diego, CA, USA) according to the manufacturer’s instructions. […] Then, cultured cells were incubated with or without AGEs (100 μg/ml) for 12 h, and the supernatant was collected for the measurement of TNF (#MTA00B) and IL-6 (#M6000B) levels with ELISA kits (R&D Systems, Minneapolis, MN, USA) according to the manufacturer’s instructions.

[2] = system: IL-6 secretion, RAW264.7 cells; assay: ELISA of IL-6 from RAW264.7 cells pretreated with kinase inhibitors; format: cell-based; set-up: unit not given here
Procedure: as §1

[3] = system: p38 MAPK phosphorylation, BMDMs; assay: Western blot, p38 MAPK phosphorylation in WT or SLP76-/- BMDMs stimulated with HMGB1; format: cell-based, mice; conditions: for Relative p38 MAPK phosphorylation, Supplementary figure 12a: relative to WT Ctrl = 1
Procedure: (§2) Cultured cells in 6-well plates were harvested, washed twice with PBS, and lysed for 30 min on ice in 150 μl of cell lysis buffer (#9803) from CST (Boston, MA, USA) containing 1 mM PMSF and 2 μg/ml leupeptin. Proteins were quantified with the BCA method. Protein samples were resolved by 10% SDS-PAGE, transferred to a nitrocellulose (NC) membrane (#GE10600002), and blocked for 1 h with 5% nonfat milk in Tris-buffered saline containing 0.1% Tween 20 (TBST) at room temperature. After incubation with a specific primary antibody overnight at 4 °C, the membrane was washed with TBST three times. Then, the membrane was incubated with a secondary antibody for 1 h at room temperature. Enhanced chemiluminescence (ECL) (#32109, Thermo Fisher Scientific, Waltham, MA, USA) was used to visualize the protein bands, and images were acquired in a ChemiDoc™ Imaging System (Bio-Rad, Hercules, CA, USA). Each experiment was repeated at least three times.
(§3) BMDMs were isolated from WT, AGER knockout, and SLP76 knockout mice. Mice were euthanized, and the femur and tibia were isolated and sterilized in 70% ethanol for 15 s and then washed with PBS. A 25-gauge needle was used to flush out the bone marrow with DMEM supplemented with 1% FBS. Bone marrow cells were passed through a cell strainer (70 μm), washed with PBS, and plated into a […] dish at a density of 1 × 10^7 cells/10 ml medium. BMDMs were grown in DMEM supplemented with 10% FBS and M-CSF (#130-094-129) (20 ng/ml) at 37 °C, and the medium was refreshed on day 3. After growth for 7 days, the cells were ready for use in subsequent experiments.

[4] = system: ERK1/2 phosphorylation, BMDMs; assay: Western blot, ERK1/2 phosphorylation in WT or SLP76-/- BMDMs stimulated with HMGB1; format: cell-based, mice; conditions: relative to WT Ctrl = 1
Procedure: as §2, §3

[5] = system: IKKα/β phosphorylation, BMDMs; assay: Western blot, IKKα/β phosphorylation in WT or SLP76-/- BMDMs stimulated with HMGB1; format: cell-based, mice; conditions: relative to WT Ctrl = 1
Procedure: as §2, §3

cytosolic tail of RAGE = assay: SPRi binding affinity of SAM domain peptide to RAGE cytosolic tail peptide; conditions: synthetic peptides, SAM 250, 500, 1000, 2000 nM, TBS pH 7.5, n=4
Procedure: To measure the binding affinity of the cytosolic tail of RAGE with the SAM domain of SLP76, a PlexArray HT A100 (Plexera, USA) was used to monitor the whole procedure in real time. Briefly, a chip with well-prepared biomolecular microarray was assembled with a plastic flow cell for sample loading. The synthesized peptide of RAGE cytosolic tail was prepared at 5 mM concentration in Tris-buffered saline (TBS) running buffer (20 mM Tris and 100 mM NaCl [pH 7.5]), and a 10 mM glycine-HCl buffer (pH 2.0) was used as regeneration buffer. The synthesized peptide of SLP76 SAM domain flowed at increasing concentrations (250, 500, 1000, 2000 nM). Binding data were collected and analyzed by a commercial SPRi analysis software (Plexera SPR Data Analysis Module, Plexera, USA).

[6] = AGEs-, inhibitor alone, replicate Exp1, in pg/mL
[7] = AGEs-, inhibitor alone, replicate Exp2, in pg/mL
[8] = AGEs-, inhibitor alone, replicate Exp3, in pg/mL
[9] = inhibitor 1 h, then AGEs 100 μg/ml 12 h, replicate Exp1, in pg/mL
[10] = inhibitor 1 h, then AGEs 100 μg/ml 12 h, replicate Exp2, in pg/mL
[11] = inhibitor 1 h, then AGEs 100 μg/ml 12 h, replicate Exp3, in pg/mL
[12] = AGEs-, inhibitor alone, replicate Exp1
[13] = AGEs-, inhibitor alone, replicate Exp2
[14] = AGEs-, inhibitor alone, replicate Exp3
[15] = inhibitor 1 h, then AGEs 100 μg/ml 12 h, replicate Exp1
[16] = inhibitor 1 h, then AGEs 100 μg/ml 12 h, replicate Exp2
[17] = inhibitor 1 h, then AGEs 100 μg/ml 12 h, replicate Exp3

| Molecule | TNF level in culture medium [1, 6] | TNF level in culture medium [1, 7] | TNF level in culture medium [1, 8] | TNF level in culture medium [1, 9] | TNF level in culture medium [1, 10] | TNF level in culture medium [1, 11] | IL-6 level in culture medium [2, 12] | IL-6 level in culture medium [2, 13] | IL-6 level in culture medium [2, 14] | IL-6 level in culture medium [2, 15] | IL-6 level in culture medium [2, 16] | IL-6 level in culture medium [2, 17] | also measured |
| --- | --- | --- | --- | --- | --- | --- | --- | --- | --- | --- | --- | --- | --- |
| COc1cc(O)c2c(c1)oc(=O)c1c3cc(O)c(O)cc3oc21 [NF-kB inhibitor] | 256.62 | 271.706 | 441.431 | 3097.6 | 4273.53 | 5262.53 | 8.8 | 7.706 | 6.631 | 22.657 | 39.53 | 43.441 |  |
| C[S+]([O-])c1ccc(-c2nc(-c3ccncc3)c(-c3ccc(F)cc3)[nH]2)cc1 (centres unmarked) [SB203580] | 86.693 | 25.813 | 72.783 | 2106.86 | 5252.19 | 5785.62 | 3.021 | 5.813 | 3.214 | 30.327 | 52.19 | 33.459 |  |
| COc1cccc(-c2cc(=O)c3ccccc3o2)c1N [PD98059] | 26.755 |  | 9.578 | 1779.92 | 1294.03 | 1283.56 | 7.69 | 0 | 2.224 | 19.112 | 12.03 | 16.667 | TNF level in culture medium [1, 13]: 0 pg/mL |
| HMGB1: recombinant mouse HMGB1, Abcam (#ab181949) (protein, UniProt P63158 1-215, looked up) High mobility group protein B1: MGKGDPKKPRGKMSSYAFFVQTCREEHKKKHPDASVNFSEFSKKCSERWKTMSAKEKGKFEDMAKADKARYEREMKTYIPPKGETKKKFKDPNAPKRPPSAFFLFCSEYRPKIKGEHPGLSIGDVAKKLGEMWNNTAADDKQPYEKKAAKLKEKYEKDIAAYRAKGKPDAAKKGVVKAEKSKKKKEEEDDEEDEEDEEEEEEEEDEDEEEDDDDE |  |  |  |  |  |  |  |  |  |  |  |  | Activation of proinflammatory signaling pathways ([3]; HMGB1 400 ng/ml, 15 min, p38 MAPK, ERK1/2, IKKα/β, text says RAW264.7 cells, figure BMDMs): activated proinflammatory signaling pathways via SLP76; Relative p38 MAPK phosphorylation, Supplementary figure 12a ([3]; SLP76-/-, Exp1): 2.8038; Relative p38 MAPK phosphorylation, Supplementary figure 12a ([3]; SLP76-/-, Exp2): 3.004; Relative p38 MAPK phosphorylation, Supplementary figure 12a ([3]; SLP76-/-, Exp3): 2.223; Relative p38 MAPK phosphorylation, Supplementary figure 12a ([3]; WT, Exp1): 7.041; Relative p38 MAPK phosphorylation, Supplementary figure 12a ([3]; WT, Exp2): 4.728; Relative p38 MAPK phosphorylation, Supplementary figure 12a ([3]; WT, Exp3): 5.924; Relative ERK1/2 phosphorylation, Supplementary figure 12b ([4]; SLP76-/-, Exp1): 7.033; Relative ERK1/2 phosphorylation, Supplementary figure 12b ([4]; SLP76-/-, Exp2): 9.087; Relative ERK1/2 phosphorylation, Supplementary figure 12b ([4]; SLP76-/-, Exp3): 4.787; Relative ERK1/2 phosphorylation, Supplementary figure 12b ([4]; WT, Exp1): 15.3469; Relative ERK1/2 phosphorylation, Supplementary figure 12b ([4]; WT, Exp2): 12.0882; Relative ERK1/2 phosphorylation, Supplementary figure 12b ([4]; WT, Exp3): 9.928; Relative IKKα/β phosphorylation, Supplementary figure 12c ([5]; SLP76-/-, Exp1): 0.8306; Relative IKKα/β phosphorylation, Supplementary figure 12c ([5]; SLP76-/-, Exp2): 2.523; Relative IKKα/β phosphorylation, Supplementary figure 12c ([5]; SLP76-/-, Exp3): 0.8014; Relative IKKα/β phosphorylation, Supplementary figure 12c ([5]; WT, Exp1): 3.067; Relative IKKα/β phosphorylation, Supplementary figure 12c ([5]; WT, Exp2): 3.67; Relative IKKα/β phosphorylation, Supplementary figure 12c ([5]; WT, Exp3): 5.409 |
| SAM domain of SLP76: synthesized peptide of SLP76 SAM domain used in SPRi (peptide) peptide: WDPDSLADYFKKLNYKDCEKAVKKYHIDGARFLNLTENDIQKFPKLRVPILSKLSQEINKNEERRSI |  |  |  |  |  |  |  |  |  |  |  |  | Binding to cytosolic tail of RAGE (cytosolic tail of RAGE): dose-dependent binding |
